Experimental findings from patent US10759766B2, “Certain chemical entities, compositions, and methods” (NeuPharma, Inc., priority 2011, dated 2020) are described below.

One test concerns the target BRAF V600E (Homo sapiens (Human), UniProt P15056, V600E). The test can be described thus: Z′-LYTE kinase inhibition assay (Invitrogen), BRAF V600E. The format is biochemical. Conditions: 1 μM compound, Z′-LYTE method; read-out: % inhibition at 1 μM against BRAF V600E. On the procedure: (§1) Inhibitory activities Inhibitory activities of compounds against BRAF, and BRAF V600E were measured by Invitrogen using Z′-LYTE® Method as briefly described in the following. 4× Test compounds are dissolved in 1% DMSO. […] ATP solutions are diluted to a 4×ATP working concentration in Kinase Buffer (50 mM HEPES pH 7.5, 0.01% BRIJ-35, 10 mM MgCl2, 1 mM EGTA). Reaction started by 30-second shaking of mixture consisting of 2.5 μL 4× test compound, […] and 2.5 μL 4×ATP Solution on Bar-coded Corning, low volume NBS, black 384-well plate (Corning Cat. #3676). Then the mixture was incubated for 60-minute at room temperature for the kinase reaction, followed by addition of 5 μL of a 1:1024 dilution of development reagent A and 30-second plate shake. The mixture was then incubated for another 60-minute at room temperature for development reaction. Fluorescence was read by plate reader. IC50 was calculated by plotting the concentration of compound vs the percentage of inhibition in treated wells using GraphPad Prism 5.
The scale utilized in Table 3 is as follows: +++ less than 100 nM; and ++ greater than 100 nM.

Another test has as its target KDR (VEGFR2) (Homo sapiens (Human), UniProt P35968). The test can be described thus: Z′-LYTE kinase inhibition assay (Invitrogen), KDR. The format is biochemical. The settings on record: 1 μM compound, Z′-LYTE method; read-out: % inhibition at 1 μM against KDR. On the procedure:
as §1
Inhibitory activities of compounds against KDR (VEGFR2) were also measured by Invitrogen using Z′-LYTE® Method as described above with the following modification. The 2× KDR (VEGFR2)/Tyr 01 mixture is prepared in 50 mM HEPES pH 7.5, 0.01% BRIJ-35, 10 mM MgCl2, 1 mM EGTA. The final 10 μL Kinase Reaction consists of 0.5-11.7 ng KDR (VEGFR2) and 2 μM Tyr 01 in 50 mM HEPES pH 7.5, 0.01% BRIJ-35, 10 mM MgCl2, 1 mM EGTA. After the 1 hour Kinase Reaction incubation, 5 μL of a 1:256 dilution of Development Reagent B is added.
The scale utilized in Table 5 is as follows: +++ less than 100 nM; and ++ greater than 100 nM

For a further test, the system named is A375 cells. Description: Inhibition of cancer cell growth, MTT assay, A375. The test is classed as cell-based. The settings on record: Homo sapiens, A-375, 72 h exposure. Here is the method: (§2) Inhibition of cell growth by compounds was measured using MTT assay (Mosmann, T., Journal of Immunological Methods, 1983, 65, 55-63). Tumor cell lines were purchased from ATCC (American Type Culture Collection, Manassas, Va.). All cell lines were maintained in RPMI 1640 (Hyclone) supplemented with 10% fetal bovine serum (FBS, Hyclone), glutamine (2 mM, Hyclone), and antibiotics (penicillin 100 U/mL and streptomycin 50 μg/mL) at 37° C. in a humidified atmosphere of 5% CO2 in air. Taxol (as a positive control, Sigma) and compounds were dissolved in DMSO (Sigma), and the final concentration of DMSO in the medium was 1%. Tumor cells were plated in 96-well plates at densities of about 4000 cells/well of a 96-well plate and allowed to adhere/grow for 24 h. They were then treated with various concentrations of drug for 72 h. 3-(4,5-Dimethylthiazol-2-yl)-2,5-diphenyltetrazolium bromide (MTT, Sigma) was used to determine the number of viable cells at the time of compound addition and the number of cells remaining after 72 h compound exposure. The number of cells remaining after 72 h was compared to the number of viable cells at the time of compound addition by measuring the absorbance at 570 nm, allowing for the calculation of growth inhibition.
(§3) All concentrations of compounds were tested in triplicate and controls were averaged over 4 wells. IC50 was calculated by plotting the concentration of compound vs the percentage of inhibition in treated wells using GraphPad Prism 5. […] The scale utilized in Table 6 is as follows: +++ less than 1000 nM; ++ between 1000 nM and 5000 nM; and + greater than 5000 nM. The scale utilized in Table 7 is as follows: +++ less than 2000 nM; ++ between 2000 nM and 5000 nM; and + greater than 5000 nM.

Another test concerns A549 cells. The test can be described thus: Inhibition of cancer cell growth, MTT assay, A549. The test is classed as cell-based. The settings on record: Homo sapiens, A549, 72 h exposure. On the procedure:
as §2, §3

pIC50: −log10 of the molar value.

Chain of KDR (VEGFR2) (P35968 20-1356): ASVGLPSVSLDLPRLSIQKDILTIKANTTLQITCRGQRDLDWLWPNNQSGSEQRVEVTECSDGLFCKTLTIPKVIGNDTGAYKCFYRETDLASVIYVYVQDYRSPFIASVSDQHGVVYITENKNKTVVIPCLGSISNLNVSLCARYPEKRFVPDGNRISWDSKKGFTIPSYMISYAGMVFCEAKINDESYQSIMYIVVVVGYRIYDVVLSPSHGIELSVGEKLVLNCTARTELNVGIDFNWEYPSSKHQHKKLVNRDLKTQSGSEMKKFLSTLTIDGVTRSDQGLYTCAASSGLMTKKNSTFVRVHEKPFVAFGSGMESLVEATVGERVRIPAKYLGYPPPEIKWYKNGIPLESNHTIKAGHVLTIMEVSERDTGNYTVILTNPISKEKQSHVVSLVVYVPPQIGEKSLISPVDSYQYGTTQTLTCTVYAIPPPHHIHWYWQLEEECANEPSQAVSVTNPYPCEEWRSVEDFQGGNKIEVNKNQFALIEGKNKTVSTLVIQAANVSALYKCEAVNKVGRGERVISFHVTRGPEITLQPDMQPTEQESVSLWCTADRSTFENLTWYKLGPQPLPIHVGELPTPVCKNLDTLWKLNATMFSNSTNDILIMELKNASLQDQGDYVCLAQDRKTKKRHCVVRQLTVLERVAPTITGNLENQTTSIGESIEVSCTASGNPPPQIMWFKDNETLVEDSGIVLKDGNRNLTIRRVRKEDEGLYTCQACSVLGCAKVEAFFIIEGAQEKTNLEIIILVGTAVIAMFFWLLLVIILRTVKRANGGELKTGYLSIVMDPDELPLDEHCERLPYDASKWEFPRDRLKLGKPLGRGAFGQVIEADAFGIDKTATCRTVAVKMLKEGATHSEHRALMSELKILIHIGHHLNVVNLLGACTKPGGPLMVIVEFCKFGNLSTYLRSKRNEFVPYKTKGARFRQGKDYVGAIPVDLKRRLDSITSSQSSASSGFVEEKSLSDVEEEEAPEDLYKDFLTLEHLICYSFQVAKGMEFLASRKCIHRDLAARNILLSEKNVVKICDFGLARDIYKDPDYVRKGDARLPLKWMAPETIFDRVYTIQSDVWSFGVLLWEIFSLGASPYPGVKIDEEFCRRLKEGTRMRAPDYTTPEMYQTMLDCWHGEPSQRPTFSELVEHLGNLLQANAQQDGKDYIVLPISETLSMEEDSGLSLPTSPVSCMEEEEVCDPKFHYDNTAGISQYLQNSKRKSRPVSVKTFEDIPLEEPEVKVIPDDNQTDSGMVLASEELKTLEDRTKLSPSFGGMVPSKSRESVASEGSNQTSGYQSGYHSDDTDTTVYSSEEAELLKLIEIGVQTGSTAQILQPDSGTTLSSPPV
Chain of BRAF V600E (P15056 whole entry V600E): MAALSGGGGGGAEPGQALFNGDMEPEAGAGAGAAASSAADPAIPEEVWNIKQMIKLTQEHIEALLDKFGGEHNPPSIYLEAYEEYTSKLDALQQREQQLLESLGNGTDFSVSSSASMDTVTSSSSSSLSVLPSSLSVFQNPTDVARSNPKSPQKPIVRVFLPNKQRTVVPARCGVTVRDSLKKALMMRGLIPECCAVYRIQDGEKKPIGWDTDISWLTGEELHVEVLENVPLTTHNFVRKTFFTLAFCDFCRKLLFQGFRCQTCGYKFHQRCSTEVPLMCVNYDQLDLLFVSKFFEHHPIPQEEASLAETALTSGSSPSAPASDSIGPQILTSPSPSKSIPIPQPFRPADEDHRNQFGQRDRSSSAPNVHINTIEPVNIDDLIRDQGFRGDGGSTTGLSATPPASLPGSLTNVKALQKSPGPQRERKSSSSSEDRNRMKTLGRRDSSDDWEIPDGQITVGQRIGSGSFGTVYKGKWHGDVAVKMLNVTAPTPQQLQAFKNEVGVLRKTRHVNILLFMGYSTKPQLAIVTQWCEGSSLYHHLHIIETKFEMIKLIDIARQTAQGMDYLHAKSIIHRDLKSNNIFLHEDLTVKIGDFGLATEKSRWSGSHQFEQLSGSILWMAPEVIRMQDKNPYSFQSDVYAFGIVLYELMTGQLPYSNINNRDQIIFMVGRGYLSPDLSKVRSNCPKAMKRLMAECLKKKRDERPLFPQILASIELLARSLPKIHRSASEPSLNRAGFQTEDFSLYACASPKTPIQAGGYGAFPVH

On to `O=C(Nc1cccc(F)c1)Nc1cc(F)c(F)c(C(=O)c2ccc3nccnc3c2)c1` [Compound C024, 1-(3,4-difluoro-5-(quinoxaline-6-carbonyl)phenyl)-3-(3-fluorophenyl)urea], for which the inhibition at 1 µM on BRAF V600E is greater than 89%; at KDR (VEGFR2), 70 to 89%. The figures for the pIC50 in the test with A375 cells and in the test with A549 cells were less than 5.30 and greater than 5.70, respectively.
For `O=C(Nc1cccc(F)c1)Nc1cc(F)cc(C(=O)c2ccc3nccnc3c2)c1` [Compound C025, 1-(3-fluoro-5-(quinoxaline-6-carbonyl)phenyl)-3-(3-fluorophenyl)urea], the values for the inhibition at 1 µM at BRAF V600E and at KDR (VEGFR2) were greater than 89% and less than 70%, respectively. Moreover, the pIC50 in the test on A375 cells and with A549 cells was less than 5.30 each time.
In the case of `O=C(Nc1cc(F)cc(C(=O)c2ccc3nccnc3c2)c1)Nc1cccc(C(F)(F)F)c1` [Compound C027, 1-(3-fluoro-5-(quinoxaline-6-carbonyl)phenyl)-3-(3-(trifluoromethyl)phenyl)urea], the inhibition at 1 µM at BRAF V600E is greater than 89%; on KDR (VEGFR2), 70 to 89%. In addition, the pIC50 is less than 5.30 in the test on A375 cells and greater than 5.70 with A549 cells.
In the case of `O=C(Nc1ccc(Cl)c(C(F)(F)F)c1)Nc1cc(F)c(F)c(C(=O)c2ccc3ncc(N4CCOCC4)nc3c2)c1F` [Compound C032, 1-(4-chloro-3-(trifluoromethyl)phenyl)-3-(2,4,5-trifluoro-3-(3-morpholinoquinoxaline-6-carbonyl)phenyl)urea], the inhibition at 1 µM on BRAF V600E and at KDR (VEGFR2) was less than 70% throughout. Also, the pIC50 was 5.30 to 6.00 with A375 cells and 5.30 to 5.70 in the test on A549 cells.
Consider `O=C(Nc1cccc(F)c1)Nc1cc(F)c(F)c(C(=O)c2ccc3ncc(N4CCOCC4)nc3c2)c1F` [Compound C033, 1-(3-fluorophenyl)-3-(2,4,5-trifluoro-3-(3-morpholinoquinoxaline-6-carbonyl)phenyl)urea], for which the values for the inhibition at 1 µM at BRAF V600E and at KDR (VEGFR2) were 70 to 89% and less than 70%, respectively. Besides, the pIC50 is 5.30 to 6.00 in the test on A375 cells and 5.30 to 5.70 in the test on A549 cells.
As to `O=C(Nc1cccc(C(F)(F)F)c1)Nc1cc(F)c(F)c(C(=O)c2ccc3ncc(N4CCOCC4)nc3c2)c1F` [Compound C034, 1-(2,4,5-trifluoro-3-(3-morpholinoquinoxaline-6-carbonyl)phenyl)-3-(3-(trifluoromethyl)phenyl)urea], the inhibition at 1 µM at BRAF V600E and at KDR (VEGFR2) was less than 70% each time. Moreover, the results for the pIC50 with A375 cells and with A549 cells were 5.30 to 6.00 and 5.30 to 5.70, respectively.
For `O=C(Nc1cccc(F)c1)Nc1cc(F)cc(C(=O)c2ccc3ncc(N4CCOCC4)nc3c2)c1` [Compound C037, 1-(3-fluoro-5-(3-morpholinoquinoxaline-6-carbonyl)phenyl)-3-(3-fluorophenyl)urea], the inhibition at 1 µM is greater than 89% at BRAF V600E and less than 70% at KDR (VEGFR2). In addition, the negative-log IC50 (pIC50) in the test with A375 cells was 5.30 to 6.00; with A549 cells it was less than 5.30.
Take `O=C(Nc1cccc(C(F)(F)F)c1)Nc1cc(F)c(F)c(C(=O)c2ccc3nccnc3c2)c1` [Compound C042, 1-(3,4-difluoro-5-(quinoxaline-6-carbonyl)phenyl)-3-(3-(trifluoromethyl)phenyl)urea]: the figures for the inhibition at 1 µM at BRAF V600E and on KDR (VEGFR2) were greater than 89% and less than 70%, respectively. In addition, the pIC50 in the test on A375 cells is 5.30 to 6.00; with A549 cells, 5.30 to 5.70.
Regarding `O=C(Nc1ccc(F)cc1)Nc1cc(F)cc(C(=O)c2ccc3ncc(N4CCOCC4)nc3c2)c1` [Compound C043, 1-(3-fluoro-5-(3-morpholinoquinoxaline-6-carbonyl)phenyl)-3-(4-fluorophenyl)urea], the inhibition at 1 µM at BRAF V600E is greater than 89%; on KDR (VEGFR2), less than 70%. Also, the negative logarithm of the IC50 (pIC50) in the test on A375 cells and in the test with A549 cells was less than 5.30 each time.
With `O=C(Nc1cc(F)cc(C(=O)c2ccc3ncc(N4CCOCC4)nc3c2)c1)Nc1ccc(F)c(Cl)c1` [Compound C044, 1-(3-chloro-4-fluorophenyl)-3-(3-fluoro-5-(3-morpholinoquinoxaline-6-carbonyl)phenyl)urea], the results for the inhibition at 1 µM at BRAF V600E and at KDR (VEGFR2) were greater than 89% and 70 to 89%, respectively. Also, the pIC50 was 5.30 to 6.00 in the test on A375 cells and 5.30 to 5.70 in the test on A549 cells.
As to `O=C(Nc1ccc(Cl)cc1)Nc1cc(F)cc(C(=O)c2ccc3ncc(N4CCOCC4)nc3c2)c1` [Compound C045, 1-(4-chlorophenyl)-3-(3-fluoro-5-(3-morpholinoquinoxaline-6-carbonyl)phenyl)urea], the inhibition at 1 µM is greater than 89% at BRAF V600E and less than 70% on KDR (VEGFR2). Further, the pIC50 is greater than 6.00 in the test with A375 cells and 5.30 to 5.70 in the test with A549 cells.
`O=C(Nc1cccc(Cl)c1)Nc1cc(F)cc(C(=O)c2ccc3ncc(N4CCOCC4)nc3c2)c1` [Compound C047, 1-(3-chlorophenyl)-3-(3-fluoro-5-(3-morpholinoquinoxaline-6-carbonyl)phenyl)urea]: the inhibition at 1 µM at BRAF V600E was greater than 89%; at KDR (VEGFR2), less than 70%. In addition, the pIC50 with A375 cells was 5.30 to 6.00; with A549 cells, 5.30 to 5.70.
On to `O=C(Nc1ccc(C(F)(F)F)cc1)Nc1cc(F)cc(C(=O)c2ccc3ncc(N4CCOCC4)nc3c2)c1` [Compound C048, 1-(3-fluoro-5-(3-morpholinoquinoxaline-6-carbonyl)phenyl)-3-(4-(trifluoromethyl)phenyl)urea], for which the inhibition at 1 µM at BRAF V600E is greater than 89%; at KDR (VEGFR2), less than 70%. The pIC50 with A375 cells was greater than 6.00; in the test on A549 cells, 5.30 to 5.70.
`O=C(Nc1cc(F)cc(C(=O)c2ccc3ncc(N4CCOCC4)nc3c2)c1)Nc1ccc(F)c(F)c1` [Compound C049, 1-(3,4-difluorophenyl)-3-(3-fluoro-5-(3-morphlinoquinoxaline-6-carbonyl)phenyl)urea]: the values for the inhibition at 1 µM on BRAF V600E and at KDR (VEGFR2) were greater than 89% and less than 70%, respectively. Besides, the values for the pIC50 in the test with A375 cells and in the test on A549 cells were 5.30 to 6.00 and 5.30 to 5.70, respectively.
The matching figures for `O=C(Nc1cc(F)cc(C(=O)c2ccc3ncc(N4CCOCC4)nc3c2)c1)Nc1ccc(Cl)c(Cl)c1` [Compound C050, 1-(3,4-dichlorophenyl)-3-(3-fluoro-5-(3-morpholinoquinoxaline-6-carbonyl)phenyl)urea]: greater than 89%, 70 to 89%, greater than 6.00 and greater than 5.70.
The matching figures for `O=C(Nc1cc(F)cc(C(=O)c2ccc3ncc(N4CCOCC4)nc3c2)c1)Nc1ccc(Cl)c(F)c1` [Compound C051, 1-(4-chloro-3-fluorophenyl)-3-(3-fluoro-5-(3-morpholinoquinoxaline-6-carbonyl)phenyl)urea]: greater than 89%, less than 70%, 5.30 to 6.00 and 5.30 to 5.70.
As to `O=C(Nc1ccc(Cl)c(F)c1)Nc1ccc(F)c(C(=O)c2ccc3ncc(N4CCOCC4)nc3c2)c1` [Compound C052, 1-(4-chloro-3-fluorophenyl)-3-(4-fluoro-3-(3-morpholinoquinoxaline-6-carbonyl)phenyl)urea], the inhibition at 1 µM is greater than 89% at BRAF V600E and 70 to 89% at KDR (VEGFR2). The pIC50 in the test with A375 cells is greater than 6.00; in the test with A549 cells, greater than 5.70.
